Molecular target: SIRT6 (Homo sapiens, UniProt Q8N6T7)
Assay: SIRT6 enzymatic activity assay with fluorophore (AMC)-labeled Lysin-myristoylated histone H3 peptide (de-myristoylation, trypsin release)
Assay type: biochemical
Design: six-histidine tag; made in house; host or cells: Escherichia coli BL21
Details: amount tested 20 uM; Example 5, Table 9
Experimental: Human recombinant SIRT6 (sequence identifier: CAG33481.1; GI:4814651) was expressed in large scale in Escherichia coli strain BL21 as a six-histidine-tagged protein, after transformation of the expression plasmid pET28-SIRT6. The SIRT6 enzyme was purified from the bacteria culture broth in a two-step strategy. The first purification step was carried out by cation exchange chromatography on a HiTrap CM-Sepharose column (GE Healthcare) using an FPLC system. The second purification step was performed by immobilized metal ion affinity chromatography (IMAC) using a cobalt affinity column (Clontech).
The enzymatic activity assay is carried out in 96 or 384-well microplates using the purified recombinant SIRT6 and a fluorophore-labeled peptide substrate: 7-amino-4-methylcoumarin (AMC) that is quenched through conjugation to the C-terminal end of a Lysin-myristoylated histone H3 peptide. The activity assay procedure requires two steps, both performed in the same microplate. In the first step, the substrate is incubated with the purified SIRT6 protein along with the co-substrate nicotinamide adenine dinucleotide (NAD+). Upon de-myristoylation, the liberated ε-amino group of the lysine becomes a trypsin substrate. Treatment with trypsin in the second step releases the fluorophore resulting in an increase in fluorescence. Fluorescence intensity is measured using a fluorescent plate reader (excitation and emission at 370 nm and 450 nm, respectively). The fluorescence signal is directly proportional to SIRT6 enzymatic activity.
In the primary screening, compounds from a library (ChemDiv Inc.) were tested at a single concentration of 20 micromolar for their potential to modulate SIRT6 enzymatic activity. The assay was carried out in 384-well black well plates and all liquid handling was done using a robotic liquid handler. Purified recombinant SIRT6 (1 micromolar) was pre-incubated with each compound (or DMSO in control wells) for 15 minutes at room temperature. The first stage of the assay was initiated by adding a ‘substrate solution’ containing the myristoylated histone H3 peptide and NAD+(for final concentrations of 25 micromolar and 20 micromolar, respectively). After one hour incubation at 37° C., a Trypsin solution (6 mg/mL) was added for 30 minutes at room temperature. Fluorescence intensity was measured using a fluorescent plate reader (Tecan) with excitation at 370 nm and emission at 450 nm. The effect of each tested compound was evaluated by the change in the fluorescence intensity compared to control wells. […] To validate the primary screening results, each of the primary “hits” was re-tested, first at concentration of 20 micromolar in duplicates and later at a serial dilution ranging from 100 to 0.2 micromolar in triplicates.
Results of Assay—The results of the assay are given below in Tables 1-3.
Additional molecules were tested according to the methods and materials of Example 1. The amount tested was 20 uM for each molecule.

Sequence of SIRT6 (Q8N6T7 whole entry): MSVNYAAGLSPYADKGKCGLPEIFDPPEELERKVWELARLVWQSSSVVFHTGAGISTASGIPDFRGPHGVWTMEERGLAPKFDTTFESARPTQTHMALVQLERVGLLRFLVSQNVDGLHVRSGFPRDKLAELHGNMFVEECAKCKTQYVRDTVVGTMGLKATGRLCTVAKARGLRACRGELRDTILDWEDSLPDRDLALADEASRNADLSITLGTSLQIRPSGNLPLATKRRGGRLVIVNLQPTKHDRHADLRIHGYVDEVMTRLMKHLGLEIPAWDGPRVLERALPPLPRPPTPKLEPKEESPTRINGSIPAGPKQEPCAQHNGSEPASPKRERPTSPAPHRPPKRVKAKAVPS

Going from `CCN(CC)CCN(C(=O)CCOc1ccccc1)c1nc2c(F)cccc2s1` [E676-4120] to `CCN(CC)CCN(C(=O)CCOc1ccccc1)c1nc2c(F)cc(F)cc2s1` [E676-5517], the “% Activity” value falls from 60% to 38%.

Compared with `CN(C)CCCN(C(=O)CCS(=O)(=O)c1ccccc1)c1nc2c(F)cccc2s1` [E677-1397], `CCOc1cccc2sc(N(CCN(C)C)C(=O)CCS(=O)(=O)c3ccccc3)nc12` [E676-1270] is lower in “% Activity” value: 95% for the first, 61% for the second.

Going from `Cc1c(Cc2ccccc2)c(=O)oc2cc(OCc3c(Cl)cccc3Cl)ccc12` [Y040-7747] to `Cc1c(Cc2ccccc2)c(=O)oc2cc(OC(=O)C3CCCCC3)ccc12` [Y040-7756], the “% Activity” value rises from 21% to 61%.

Compared with `CCNC(=O)N1CCc2c(sc3ncnc(NCC)c23)C1` [S324-0342], `CN(C)CCNC(=O)C1CCN(c2nc3ccc(-c4cccnc4)nc3s2)CC1` [T387-1019] is higher in “% Activity” value: 30% for the first, 31% for the second.

Going from `COc1ccc(C(=O)Oc2ccc3c4c(c(=O)oc3c2)CCCC4)cc1` [Y040-8182] to `COc1ccc(C(=O)Oc2ccc3c4c(c(=O)oc3c2)CCC4)cc1` [2712-3502], the “% Activity” value falls from 485% to 264%.

First: Cc1ccc2sc(N(CCCN(C)C)C(=O)CCS(=O)(=O)c3ccccc3)nc2c1C [E677-2159]
Second: CCN(CC)CCN(C(=O)CCS(=O)(=O)c1ccccc1)c1nc2c(C)cccc2s1 [E676-3810]
The “% Activity” value of the first is lower: 70% for the first, 121% for the second.

Compared with `Cc1c(Cc2ccccc2)c(=O)oc2c(C)c(OC(=O)C3CCCCC3)ccc12` [Y040-7709], `CC(=O)Oc1ccc2c(C)c(Cc3ccccc3)c(=O)oc2c1C` [2259-4062] is lower in “% Activity” value: 145% for the first, 137% for the second.

Compared with `CCCc1cc2c(=O)c(-c3ccc4c(c3)OCO4)coc2cc1OC(C)=O` [2188-3841], `CCCCCCc1c(C)c2cc(C)c(OC(=O)c3cccc(OC)c3)cc2oc1=O` [Y040-7591] is higher in “% Activity” value: 21% for the first, 63% for the second.

Going from `CCCc1ccc(-c2ccc(C(=O)Nc3nc4ccc(C)cc4s3)cc2)nc1` [0703-6407] to `CCCCCCOc1ccc(C(=O)Nc2nc3ccc(OC)cc3s2)cc1` [0938-8060], the “% Activity” value rises from 40% to 47%.

First: Cc1ccccc1C1N=C2C=NC=CN2C1NCCC(=O)NCc1cccs1 (stereo not drawn) [P349-2111]
Second: CCS(=O)(=O)c1nc2ccccc2n1CC(=O)Nc1ccccc1C(=O)OC [7398-1618]
The “% Activity” value of the first is lower: 84% for the first, 156% for the second.

First: COc1cc(OC)cc(C(=O)Nc2nc3c(cc4c5c(cccc53)CC4)s2)c1 [3343-0231]
Second: COc1cccc(C(=O)Oc2ccc3c4c(c(=O)oc3c2C)CCCC4)c1 [Y040-0750]
The “% Activity” value of the first is lower: 24% for the first, 33% for the second.

Going from `Cc1cc(C)c2c(N)c(-c3nnc(-c4ccccc4)o3)sc2n1` [8018-7776] to `Cc1c(OC(=O)c2ccccc2)ccc2c3c(c(=O)oc12)CCC3` [4986-0081], the “% Activity” value falls from 42% to 41%.

Going from `Cc1c(C)c2ccc(OC(=O)C3CCCCC3)c(C)c2oc1=O` [Y040-1862] to `CCOC(=O)CCc1c(C)c2ccc(OC(=O)C3CCCCC3)c(C)c2oc1=O` [Y04-4165], the “% Activity” value rises from 237% to 529%.

Going from `COc1cc(C(=O)Oc2ccc3c4c(c(=O)oc3c2)CCC4)cc(OC)c1OC` [2712-4061] to `COc1cc(C(=O)Oc2ccc3c4c(c(=O)oc3c2)CCCC4)cc(OC)c1OC` [Y040-2478], the “% Activity” value rises from 52% to 95%.

Compared with `O=C(c1ccccc1Br)N1C(=O)c2ccccc2S1(=O)=O` [8006-3826], `CCOc1ccccc1C(=O)Oc1ccc2c(C)c(CC(=O)OC)c(=O)oc2c1C` [Y040-3573] is lower in “% Activity” value: 56% for the first, 50% for the second.

Compared with `O=C(C1CCN(c2nc3ccc(-c4cncnc4)nc3s2)CC1)N1CCCC1` [T387-0947], `COCCCNC(=O)C1CCN(c2nc3ccc(-c4cncnc4)nc3s2)CC1` [T387-0917] is higher in “% Activity” value: 40% for the first, 65% for the second.

Compared with `CN1CCC(NC(=O)C2CCN(c3nc4ccc(-c5ccccc5)nc4s3)CC2)CC1` [T387-0726], `CC1CCN(C(=O)C2CCN(c3nc4ccc(-c5ccncc5)nc4s3)CC2)CC1` [T387-1113] is higher in “% Activity” value: 22% for the first, 47% for the second.

For `COC(=O)Cc1c(C)c2ccc(OC(=O)c3cccc(OC)c3)c(C)c2oc1=O` [Y040-3572], the “% Activity” value was 396%.

Same assay, conditions: compound 20 uM; percentage of signal increase relative to control wells; Tables 1-2

Going from `O=c1[nH]c2ccc(Cl)cc2c(-c2ccccc2)c1Nc1ccc(Oc2ccccc2)cc1` [8013-3307] to `CCOc1ccc(NC(=O)c2sc3nc(C)nc(N(C)c4ccc(C(C)C)cc4)c3c2C)cc1` [K937-0320], the “% activity 20 uM” value rises from 24% to 32%.

Compared with `CCCNC(=O)c1ccc(-c2ccc(N3CCCCC3)nc2)cc1` [M715-0111], `CN(C)C(=O)c1ccc(-c2ccc(N3CCCCC3)nc2)cc1` [M715-0112] is lower in “% activity 20 uM” value: 63% for the first, 40% for the second.

First: CC(=O)Nc1ccc(-c2cc(C(=O)NCCN3CCN(C)CC3)c3cc(C)ccc3n2)cc1 [L036-2289]
Second: CCCNc1nc2ccccc2nc1S(=O)(=O)Cc1ccc(Cl)cc1 [L103-0652]
The “% activity 20 uM” value of the first is higher: 96% for the first, 34% for the second.

With `CCOC(=O)C1CCCN(S(=O)(=O)c2ccc(-c3ccc(N4CCOCC4)nn3)s2)C1` (stereo not drawn) [K906-5001] the “% activity 20 uM” value was 52%.

Same assay, conditions: compound 100 uM; percentage of signal increase relative to control wells; Tables 1-2

Going from `O=c1[nH]c2ccc(Cl)cc2c(-c2ccccc2)c1Nc1ccc(Oc2ccccc2)cc1` [8013-3307] to `Cc1ccccc1CSc1ncc(Sc2ccccc2)c(C(=O)NCc2ccccc2)n1` [D506-0127], the “% activity Max. conc. 100 uM” value falls from 86% to 65%.

Compared with `Cc1cc(Nc2ccc(NC(=O)Nc3ccc4c(c3)CCCO4)cc2)nc(NC2CCCCC2)n1` [D577-0290], `Cc1ccc(Nc2nc(C)c(C(=O)Nc3cccc(C(C)C)c3)s2)cc1` [M830-6572] is lower in “% activity Max. conc. 100 uM” value: 22% for the first, 11% for the second.

Compared with `CC1=NCC(c2ccc(O)cc2O)=C1c1ccc(Cl)cc1` [8020-1200], `CCCNc1nc2ccccc2nc1S(=O)(=O)Cc1ccc(Cl)cc1` [L103-0652] is lower in “% activity Max. conc. 100 uM” value: 94% for the first, 42% for the second.

Compared with `N#Cc1cccc(-c2cn3c(n2)N(C(=O)c2ccncc2)CCC3)c1` [P950-0537], `CC(C)(C)c1ccc(C(=O)Nc2ccc3nnc(C4CCC4)n3c2)cc1` [M723-1403] is higher in “% activity Max. conc. 100 uM” value: 45% for the first, 87% for the second.

First: C=C(CN1c2ccccc2C(C)(C)C12C=Cc1c(ccc3ccccc13)C2)NC (stereo not drawn) [8008-8279]
Second: C=C(CN1C(=C)C(c2nc(-c3ccccc3)no2)=C(C)C=C1C)NCCc1ccc(CC)c(CC)c1 [G744-0071]
The “% activity Max. conc. 100 uM” value of the first is lower: 27% for the first, 73% for the second.

Going from `CCCNC(=O)c1ccc(-c2ccc(N3CCCCC3)nc2)cc1` [M715-0111] to `CN(C)C(=O)c1ccc(-c2ccc(N3CCCCC3)nc2)cc1` [M715-0112], the “% activity Max. conc. 100 uM” value rises from 50% to 54%.

First: C=C1Cc2cc(C)cc(CC(=O)[C@@H](NS(=C)(=C)c3ccc(C)cc3)[C@H](C)CC)c2C2=C1CCC2 [Y040-3625]
Second: CC(=O)Nc1ccc(-c2cc(C(=O)NCCN3CCN(C)CC3)c3cc(C)ccc3n2)cc1 [L036-2289]
The “% activity Max. conc. 100 uM” value of the first is lower: 113% for the first, 119% for the second.

Going from `C=C1Nc2nc(OC(C)=O)c(C)c(C)c2S1` [8018-4551] to `Cc1nc2sc(-c3nc4ccccc4[nH]3)c(N)c2c(C)c1Cl` [8012-5593], the “% activity Max. conc. 100 uM” value falls from 197% to 59%.

Going from `Cc1nc(-c2cccc(F)c2)c(N)c(N(C)C2CCN(C)CC2)n1` [V030-4128] to `Cc1nc(-c2cccc(C(F)(F)F)c2)c(N)c(N(C)C2CCN(C)CC2)n1` [V030-4109], the “% activity Max. conc. 100 uM” value rises from 210% to 255%.

Compared with `COc1cc(NC(=O)c2csc(-c3cn(C)c4ncccc34)n2)cc(OC)c1` [P613-0273], `Cc1cc(NC(=O)CSc2nnc(-c3sc4ncccc4c3N)n2C)ccc1Cl` [D549-0050] is higher in “% activity Max. conc. 100 uM” value: 37% for the first, 47% for the second.

Going from `C=C(CS)Nc1ccc(CCCCC)cc1` [8008-0525] to `CCOc1ccc(NC(=O)c2sc3nc(C)nc(N(C)c4ccc(C(C)C)cc4)c3c2C)cc1` [K937-0320], the “% activity Max. conc. 100 uM” value rises from 48% to 54%.

Compared with `C=S(=C)(c1cc(Cl)ccc1Cl)n1c(/C=C/c2ccc(SC)cc2)nc2ccccc21` [C381-0232], `CCOC(=O)C1CCCN(S(=O)(=O)c2ccc(-c3ccc(N4CCOCC4)nn3)s2)C1` (stereo not drawn) [K906-5001] is higher in “% activity Max. conc. 100 uM” value: 36% for the first, 52% for the second.
